Earlier results as cited in publication PMC12356143 (RSC Medicinal Chemistry, 2025).

What was measured:
[1] = test system: FIPV M^pro; details: literature value; cited from earlier work
[2] = test system: M^pro WT; details: literature value; cited from earlier work

| Compound | IC50 [1] [nM] | K M [2] | k cat [2] |
| --- | --- | --- | --- |
| CC(C)CC(NC(=O)OCc1ccccc1)C(=O)NC(CC1CCNC1=O)C(O)S(=O)(=O)O (stereo not shown) [GC376] | 130 ± 20 | – | – |
| COc1cccc2[nH]c(C(=O)NC(CC3CC3)C(=O)NC(CC3CCNC3=O)C(O)S(=O)(=O)O)cc12 (stereo not shown) [compound 4] | 60 ± 20 | – | – |
| 2-Abz-SVTLQ↓SGY^(NO2)R-OH | – | 80 × 10^−6 (lit. [10]) M | 2.25 ± 0.1 (lit. [10]) s^−1 |
| Dabcyl-KTSAVLQ↓SGFRKME(Edans)-NH2 [Dabcyl-KTSAVLQ↓S GFRKME(Edans)-NH2] | – | 4.6 × 10^−6 (lit. [23]) M | 0.29 ± 0.03 (lit. [23]) s^−1 |
| O=C(NC(CC1CC1)C(=O)NC(CC1CCNC1=O)C(O)S(=O)(=O)O)OCCc1cccc(Cl)c1 (stereo not shown) [compound 5] | 50 ± 20 | – | – |
